Molecular target: GST-Xa-hAAK1 (Homo sapiens (Human), UniProt Q2M2I8)
Assay: AAK1 Kinase Assay;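 further: each compound tested across an eleven-point concentration series, with IC50 obtained through non-linear regression fitting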
Assay type: biochemical
Conditions: bacterially expressed GST-Xa-hAAK1 3.5 nM; ATP 22 μM; peptide substrate 1.5 μM; 3 hours at room temperature; Caliper LabChip 3000
Method: The assays were performed in U-bottom 384-well plates. […] The reactions were initiated by the combination of bacterially expressed, GST-Xa-hAAK1 with substrates and test compounds. The reactions were incubated at room temperature for 3 hours and terminated by adding 60 μl of 35 mM EDTA buffer to each sample. […] Compounds were dissolved at 10 mM in dimethylsulfoxide (DMSO) and evaluated at eleven concentrations. IC50 values were derived by non-linear regression analysis.

GST-Xa-hAAK1, sequence (Q2M2I8 whole entry): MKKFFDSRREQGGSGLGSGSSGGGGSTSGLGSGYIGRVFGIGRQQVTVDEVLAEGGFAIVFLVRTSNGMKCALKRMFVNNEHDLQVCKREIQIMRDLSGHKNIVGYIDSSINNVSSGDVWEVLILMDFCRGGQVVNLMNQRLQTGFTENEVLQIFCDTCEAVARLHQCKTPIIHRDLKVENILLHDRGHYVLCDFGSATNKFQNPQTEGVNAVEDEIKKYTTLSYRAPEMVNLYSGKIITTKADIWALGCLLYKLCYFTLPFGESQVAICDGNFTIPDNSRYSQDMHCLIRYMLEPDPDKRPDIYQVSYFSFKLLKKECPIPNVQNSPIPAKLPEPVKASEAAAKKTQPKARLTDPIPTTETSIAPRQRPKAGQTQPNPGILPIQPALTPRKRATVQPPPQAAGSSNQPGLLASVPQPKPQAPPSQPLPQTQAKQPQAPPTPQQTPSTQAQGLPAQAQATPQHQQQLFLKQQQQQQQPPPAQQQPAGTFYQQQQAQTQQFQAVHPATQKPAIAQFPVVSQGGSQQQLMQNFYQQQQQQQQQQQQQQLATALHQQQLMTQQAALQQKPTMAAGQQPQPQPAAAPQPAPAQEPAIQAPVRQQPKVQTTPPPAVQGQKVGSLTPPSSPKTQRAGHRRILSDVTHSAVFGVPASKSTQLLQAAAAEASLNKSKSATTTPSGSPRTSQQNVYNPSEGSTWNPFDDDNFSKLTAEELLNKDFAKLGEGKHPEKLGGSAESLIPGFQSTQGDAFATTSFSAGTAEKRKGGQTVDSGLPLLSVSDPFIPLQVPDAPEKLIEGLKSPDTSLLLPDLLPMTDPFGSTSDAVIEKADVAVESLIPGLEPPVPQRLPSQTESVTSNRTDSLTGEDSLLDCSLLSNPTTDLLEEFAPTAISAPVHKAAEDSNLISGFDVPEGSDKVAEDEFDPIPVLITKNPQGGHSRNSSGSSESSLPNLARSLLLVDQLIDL

Structure (SMILES)	IC50
CC(C)C[C@](C)(N)COc1cnc(-c2ccnc3cc(F)cc(F)c23)cc1Cl [Example 233, (S)-1-((4-chloro-6-(5,7-difluoroquinolin-4-yl)pyridin-3-yl)oxy)-2,4-dimethylpentan-2-amine]	730 pM
CC(C)C[C@@](C)(N)COc1ccc(-c2ccnc(C(F)F)c2)nc1C(F)F [Example 174, (R)-1-((2′,6-bis(difluoromethyl)-[2,4′-bipyridin]-5-yl)oxy)-2,4-dimethylpentan-2-amine]	54000 pM
CC(=O)Nc1cc(-c2ccc(OC[C@@H](N)CC(C)C)c(C#N)c2)ccn1 [Example 3, (S)—N-(4-(4-((2-amino-4-methylpentyl)oxy)-3-cyanophenyl)pyridin-2-yl)acetamide]	300 pM

Results, then the compound that gave them:

IC50	Structure (SMILES)
850 pM	Cc1cc(-c2ccnc3ccccc23)ncc1OC[C@@](C)(N)CC(C)C [Example 82, (S)-2,4-dimethyl-1-((4-methyl-6-(quinolin-4-yl)pyridin-3-yl)oxy)pentan-2-amine]
43000 pM	COC(=O)Nc1cc(-c2ccc(OC[C@@](C)(N)CC(C)C)c(S(C)(=O)=O)c2)ccn1 [Example 113, (S)-methyl (4-(4-((2-amino-2,4-dimethylpentyl)oxy)-3-(methylsulfonyl)phenyl)pyridin-2-yl)carbamate]
